Assay results from patent publication US11066447B2, “Aureobasidium derivatives and methods of synthesis” (AureoGen Biosciences, Inc., priority 2016, dated 2021).
≈ marks a conversion by molar mass, not a printed value. Like-named read-outs stand apart in the source and are kept apart here. Numbered stars: 1 amine (or outer) side, 2 acyl side, 3 side chain; on linkers, the order of the positions; unused ones are H or OH. Square brackets hold non-standard residues; d marks the D form. Peptide text beside a SMILES is read from it. X20 = CN([C@@H](Cc1cccc(-c2cnn(C3CCCC3)c2)c1)C(=O)[*:2])[*:1]; X16 = CC(C)c1cc(-c2cccc(C[C@@H](C(=O)[*:2])N(C)[*:1])c2)ccn1; X18 = CN([C@@H](Cc1cccc(-c2ccc3ccncc3c2)c1)C(=O)[*:2])[*:1]; Hmp(2R,3S) = CC[C@H](C)[C@@H](O)C(=O)O; NMeVal(β-OH) = CN[C@H](C(=O)O)C(C)(C)O; NMeV = CN[C@H](C(=O)O)C(C)C

Tests used:
A. fumigatus MMX 5944 = test: MIC/MEC assay (CLSI microdilution); assay type: cell-based; settings: Aspergillus fumigatus, MMX5944, 48 h; for minimal effective concentration: RPMI plus 0.002% Tween-80; for MIC: RPMI plus 0.002% Tween-80, read-out: MIC
Procedure: (§1) Aureobasidin and test compounds (i.e., AbA derivatives of the present invention) were received from Kalexsyn, Inc. (Kalamazoo, Mich.) as powder and were stored at 4° C. until the day of assay. […] amphotericin was obtained from Sigma Aldrich and stored under like conditions. […] Ethanol (95%) was used as a solvent and diluent for all AbA compounds. Amphotericin B was tested from 0.06-64 μg/mL. Amphotericin B (Sigma Aldrich; St. Louis, Mo.; Cat No. A9528-100MG, Lot No. 120M4087) was dissolved and diluted with dimethylsulfoxide (DMSO; Sigma Aldrich; St. Louis, Mo.; Cat No. 472301 Lot No. SHBD2072V).
(§2) The solvents were added to the test agents and the stock solutions stood for approximately 1 hr at room temperature prior to use to auto sterilize. Stock solutions were prepared at 40× the desired top concentration in the test plate.
(§3) All of the test isolates were originally received from either the American Type Culture Collection (ATCC), clinical labs, or directly from Aureogen Biosciences. Organisms stored by Micromyx were cultured on agar medium appropriate to each organism. Colonies were picked by swab from the isolation plates and put into suspension in appropriate broth containing cryoprotectant. The suspensions were aliquoted into cryogenic vials and maintained at −80° C.
(§4) Prior to testing, Candida isolates were streaked from the frozen vials on Sabouraud dextrose agar. The yeast isolates were incubated for 48 hours at 35° C. before use. The fungal isolates were obtained from enumerated fungal stocks previously prepared at Micromyx and stored in phosphate buffered saline at 4° C.
(§5) Test Media. The medium employed for the MIC assay was RPMI-1640 medium from HyClone Laboratories (Logan, Utah; Lot No. AYB60287A). The medium was prepared according to Clinical and Laboratory Standards Institute (CLSI) guidelines (1, 2), and modified to include 0.002% Tween-80. Candida parapsilosis ATCC 22019 (MMX 2323) and Aspergillus fumigatus ATCC MYA-3626 (MMX 5280) were also tested without Tween-80 to provide data for the quality control of amphotericin B in accordance with CLSI (3) and to assess the effect of Tween-80 on the activity of the test agents.
(§6) Test Procedure. The MIC assay method followed the procedure described by CLSI (1, 2) and employed automated liquid handlers to conduct serial dilutions and liquid transfers. Automated liquid handlers included the Multidrop 384 (Labsystems, Helsinki, Finland), Biomek 2000 and Biomek FX (Beckman Coulter, Fullerton Calif.). The wells in columns 2-12 in standard 96-well microdilution plates (Costar 3795) were filled with 150 μl of the appropriate diluent (95% EtOH for investigational compounds, 100% DMSO for amphotericin B). These assay plates would become the ‘mother plates’ from which the assay ‘daughter plates’ would be prepared. The drugs (300 μL at 40× the desired top concentration in the test plates) were dispensed into the appropriate well in Column 1 of the mother plates. The Biomek 2000 was used to make two-fold serial dilutions through Column 11 in the “mother plate”. The wells of Column 12 contained no drug and served as the organism growth control wells.
(§7) The daughter plates were loaded with 185 μL per well on the Multidrop 384 with RPMI plus 0.002% Tween-80 or RPMI containing no Tween-80 for the testing of the two QC isolates. The daughter plates were prepared on the Biomek FX instrument which transferred 5 μL of drug solution from each well of a mother plate to each corresponding well of each daughter plate in a single step.
(§8) A standardized inoculum of each organism was prepared per CLSI methods (1, 2). For the Candida isolates, colonies were picked from the streak plate and a suspension was prepared in RPMI to equal a 0.5 McFarland standard. This suspension was diluted 1:100 in RPMI resulting in a final concentration of approximately 0.5-2.5×10^3 CFU/mL. […]

[1] = tested on: A. fumigatus from Aureogen; test: MIC/MEC assay (CLSI microdilution); assay type: cell-based; settings: Aspergillus fumigatus, 48 h; for minimal effective concentration: RPMI plus 0.002% Tween-80; for MIC: RPMI plus 0.002% Tween-80, read-out: MIC
Procedure: as §1, §2, §3, §4, §5, §6, §7, §8

[2] = tested on: A. fumigatus MMX 6782 ATCC 13073; test: MIC/MEC assay (CLSI microdilution); assay type: cell-based; settings: Aspergillus fumigatus, ATCC13073, 48 h; for minimal effective concentration: RPMI plus 0.002% Tween-80, read-out: MEC; for MIC: RPMI plus 0.002% Tween-80, read-out: MIC
Procedure: as §1, §2, §3, §4, §5, §6, §7, §8

A. flavus MMX 5948 = test: MIC/MEC assay (CLSI microdilution); assay type: cell-based; settings: Aspergillus flavus, MMX5948, 48 h; for minimal effective concentration: RPMI plus 0.002% Tween-80; for MIC: RPMI plus 0.002% Tween-80, read-out: MIC
Procedure: as §1, §2, §3, §4, §5, §6, §7, §8

[3] = tested on: A. fumigatus MMX 6781 ATCC MYA-4609; test: MIC/MEC assay (CLSI microdilution); assay type: cell-based; settings: Aspergillus fumigatus; for MIC: 48 h, RPMI plus 0.002% Tween-80, read-out: MIC; for minimal effective concentration: RPMI plus 0.002% Tween-80, 48 hr
Procedure: as §1, §2, §3, §4, §5, §6, §7, §8

[4] = tested on: A. niger MMX 0624 ATCC 16888; test: MIC/MEC assay (CLSI microdilution); assay type: cell-based; settings: Aspergillus niger, ATCC16888, 48 h; for minimal effective concentration: RPMI plus 0.002% Tween-80, read-out: MEC; for MIC: RPMI plus 0.002% Tween-80, read-out: MIC
Procedure: as §1, §2, §3, §4, §5, §6, §7, §8

[5] = tested on: C. albicans MMX 2000 ATCC 10231; test: MIC assay (CLSI microdilution); assay type: cell-based; settings: Candida albicans, ATCC10231, RPMI plus 0.002% Tween-80; read-out: MIC
Procedure: as §1, §2, §3, §4, §5, §6, §7, §8

[6] = tested on: C. neoformans MMX 0634 ATCC 90112; test: MIC assay (CLSI microdilution); assay type: cell-based; settings: Cryptococcus neoformans, ATCC90112, RPMI plus 0.002% Tween-80; read-out: MIC
Procedure: as §1, §2, §3, §4, §5, §6, §7, §8

[7] = tested on: A. fumigatus MMX 5280 ATCC MYA-3626; test: MIC/MEC assay (CLSI microdilution); assay type: cell-based, Aspergillus fumigatus; settings: Aspergillus fumigatus, 48 h
Procedure: as §1, §2, §3, §4, §5, §6, §7, §8

[8] = tested on: C. parapsilosis MMX 2323 ATCC 22019; test: MIC assay (CLSI microdilution); assay type: cell-based, Candida parapsilosis; settings: read-out: MIC
Procedure: as §1, §2, §3, §4, §5, §6, §7, §8

[9] = RPMI plus 0.002% Tween-80, read-out: MEC
[10] = RPMI plus 0.002% Tween-80, read-out: MIC
[11] = Without Tween-80, read-out: MEC
[12] = Without Tween-80, read-out: MIC
[13] = ATCC22019, RPMI plus 0.002% Tween-80

SMILES: CC[C@H](C)[C@@H]1NC(=O)[C@@H]2CCCN2C(=O)[C@H](Cc2cccc(-c3cnn(C4CCCC4)c3)c2)N(C)C(=O)[C@H](Cc2ccccc2)NC(=O)[C@H](C(C)C)N(C)C(=O)[C@@H]([C@@H](C)CC)OC(=O)[C@H](C(C)(C)O)N(C)C(=O)[C@H](CC(C)C)NC(=O)[C@H](C(C)C)N(C)C1=O [Compound 12] (cyclo(F[X20]PI[NMeV]L[NMeVal(β-OH)][Hmp(2R,3S)][NMeV]))
- minimal effective concentration (A. fumigatus MMX 5944): > 64 µg/mL
- MIC (A. fumigatus MMX 5944): > 64 µg/mL
- minimal effective concentration [1]: > 64 µg/mL
- MIC [1]: > 64 µg/mL
- minimal effective concentration [2]: > 64 µg/mL
- MIC [2]: > 64 µg/mL
- minimal effective concentration (A. flavus MMX 5948): > 64 µg/mL
- MIC (A. flavus MMX 5948): > 64 µg/mL
- MIC [3]: > 64 µg/mL
- minimal effective concentration [3]: > 64 µg/mL
- minimal effective concentration [4]: > 64 µg/mL
- MIC [4]: > 64 µg/mL
- MIC [5]: 0.03 µg/mL
- MIC [6]: 0.5 µg/mL
- minimal effective concentration [7, 9]: > 64 µg/mL
- MIC [7, 10]: > 64 µg/mL
- minimal effective concentration [7, 11]: > 64 µg/mL
- MIC [7, 12]: > 64 µg/mL
- MIC [8, 13]: 0.12 µg/mL
- MIC ([8]; ATCC22019, Without Tween-80): 1 µg/mL (≈ 0.809 µM)

SMILES: CC[C@H](C)[C@@H]1NC(=O)[C@@H]2CCCN2C(=O)[C@H](Cc2cccc(-c3ccnc(C(C)C)c3)c2)N(C)C(=O)[C@H](Cc2ccccc2)NC(=O)[C@H](C(C)C)N(C)C(=O)[C@@H]([C@@H](C)CC)OC(=O)[C@H](C(C)(C)O)N(C)C(=O)[C@H](CC(C)C)NC(=O)[C@H](C(C)C)N(C)C1=O [Compound 16] (cyclo(F[X16]PI[NMeV]L[NMeVal(β-OH)][Hmp(2R,3S)][NMeV]))
- minimal effective concentration (A. fumigatus MMX 5944): 2 µg/mL
- MIC (A. fumigatus MMX 5944): > 64 µg/mL
- minimal effective concentration [1]: 2 µg/mL
- MIC [1]: > 64 µg/mL
- minimal effective concentration [2]: 1 µg/mL
- MIC [2]: > 64 µg/mL
- minimal effective concentration (A. flavus MMX 5948): 0.5 µg/mL
- MIC (A. flavus MMX 5948): 1 µg/mL
- MIC [3]: > 64 µg/mL
- minimal effective concentration [3]: 2 µg/mL
- minimal effective concentration [4]: 0.5 µg/mL
- MIC [4]: 0.5 µg/mL
- MIC [5]: 0.03 µg/mL
- MIC [6]: 0.12 µg/mL
- minimal effective concentration [7, 9]: 2 µg/mL
- MIC [7, 10]: > 64 µg/mL
- minimal effective concentration [7, 11]: 2 µg/mL
- MIC [7, 12]: > 64 µg/mL
- MIC [8, 13]: 0.12 µg/mL
- MIC ([8]; ATCC22019, Without Tween-80): 1 µg/mL (≈ 0.819 µM)

SMILES: CC[C@H](C)[C@@H]1NC(=O)[C@@H]2CCCN2C(=O)[C@H](Cc2cccc(-c3ccc4ccncc4c3)c2)N(C)C(=O)[C@H](Cc2ccccc2)NC(=O)[C@H](C(C)C)N(C)C(=O)[C@@H]([C@@H](C)CC)OC(=O)[C@H](C(C)(C)O)N(C)C(=O)[C@H](CC(C)C)NC(=O)[C@H](C(C)C)N(C)C1=O [Compound 17] (cyclo(F[X18]PI[NMeV]L[NMeVal(β-OH)][Hmp(2R,3S)][NMeV]))
- minimal effective concentration (A. fumigatus MMX 5944): > 64 µg/mL
- MIC (A. fumigatus MMX 5944): > 64 µg/mL
- minimal effective concentration [1]: > 64 µg/mL
- MIC [1]: > 64 µg/mL
- minimal effective concentration [2]: > 64 µg/mL
- MIC [2]: > 64 µg/mL
- minimal effective concentration (A. flavus MMX 5948): 0.12 µg/mL
- MIC (A. flavus MMX 5948): 0.5 µg/mL
- MIC [3]: > 64 µg/mL
- minimal effective concentration [3]: > 64 µg/mL
- minimal effective concentration [4]: 0.06 µg/mL
- MIC [4]: 0.12 µg/mL
- MIC [5]: 0.015 µg/mL
- MIC [6]: 0.25 µg/mL
- minimal effective concentration [7, 9]: > 64 µg/mL
- MIC [7, 10]: > 64 µg/mL
- minimal effective concentration [7, 11]: > 64 µg/mL
- MIC [7, 12]: > 64 µg/mL
- MIC [8, 13]: 0.06 µg/mL
- MIC ([8]; ATCC22019, Without Tween-80): 1 µg/mL (≈ 0.814 µM)
